These are literature values, as cited in patent publication US20080248136A1, “ACUTE AND CHRONIC HEARTBURN COMPOSITION AND METHOD” (IOMEDIX DEVELOPMENT INTERNATIONAL SRL, priority 2006, published 2008).

The conditions of data set [1]: in vivo.
For data set [2] the following is noted: mice.
Data set [3] concerns mitogen-activated protein kinase signaling. The settings on record: signaling stimulated by H. Pylori.

`O=C([O-])[O-].[Ca+2]` [calcium carbonate]: in data set [1], the “esophageal pH” value is listed as “significantly increased” and the “gastric pH versus placebo” value was “remained at or below placebo levels”.

With `C=C(C)[C@H]1CC=C(C)CC1` [limonene], the “participants achieving complete relief of symptoms” value (after 2 days of administration) is 20%. For the same compound, the “severity of gastric and esophageal reflux disorder symptoms, as evaluated by subjects” value (daily or every other day administration, after 14 days) is on record as “near complete relief of the symptoms”. Besides, the “lasting alleviation of symptoms of gastric and esophageal reflux disorders” value (in certain cases) was “alleviated permanently”. Also, the antinociceptive activity entry in data set [2] is on record as “has antinociceptive activity”.

For the compound `[Mg+2].[OH-].[OH-]` [magnesium hydroxide], in data set [1], the “esophageal pH” value is reported as “significantly increased” and the “gastric pH versus placebo” value was “increased gastric pH above placebo levels”.

Turning to `C=C(C)[C@@H]1CC=C(C(=O)O)CC1` [perillic acid], the “effect on mitogen-activated protein kinase signaling” value in data set [3] is on record as “inhibits”.
